{"source": "patent US9314458B2", "about": "“Topical use of ingenol-3-angelate or a salt thereof to treat skin cancer” (LEO Laboratories Limited, priority 2000, dated 2016)", "assay_type_in_all_cases": "cell-based", "key": {"[1]": {"test_system": "EBV in Burkitt's lymphoma cell lines (Mutul, BL74) and an LCL", "assay": "EBV activation (VCA western blot) in Burkitt's lymphoma cell lines and LCL", "procedure": "To ensure that equal amounts of each sample were analyzed, the gels were stained with Coomassie blue and the loadings were adjusted to make them equal. […] Next the PEP003 and PEP004 were assayed on two Burkitt's lymphoma cell lines and an LCL. This time only concentrations of 10^−5 and 10^−7 were used."}, "PKCζ": {"molecular_target": "T1, PKCζ (Homo sapiens, UniProt Q05513)", "T1 construct": "host or cells: HeLa cells", "T1 sequence (Q05513 1-592)": "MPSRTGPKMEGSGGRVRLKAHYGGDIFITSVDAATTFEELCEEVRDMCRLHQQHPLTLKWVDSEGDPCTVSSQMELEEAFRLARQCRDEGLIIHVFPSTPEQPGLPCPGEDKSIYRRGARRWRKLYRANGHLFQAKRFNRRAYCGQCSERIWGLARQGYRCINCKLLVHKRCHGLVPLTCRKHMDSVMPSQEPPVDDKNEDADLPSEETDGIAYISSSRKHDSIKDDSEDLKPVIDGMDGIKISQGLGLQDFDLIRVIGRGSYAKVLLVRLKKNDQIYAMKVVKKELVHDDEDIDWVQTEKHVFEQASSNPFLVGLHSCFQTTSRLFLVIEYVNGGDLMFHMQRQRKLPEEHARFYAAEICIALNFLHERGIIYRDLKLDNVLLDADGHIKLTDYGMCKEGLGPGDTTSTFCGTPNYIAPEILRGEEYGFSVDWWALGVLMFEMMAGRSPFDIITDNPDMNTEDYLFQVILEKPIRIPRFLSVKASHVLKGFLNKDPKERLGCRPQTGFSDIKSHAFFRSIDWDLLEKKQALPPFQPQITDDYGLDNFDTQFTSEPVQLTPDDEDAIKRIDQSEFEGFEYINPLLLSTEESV", "assay": "EGFP-PKC translocation in HeLa cells (PKCζ)", "conditions": "one hour, same concentrations", "procedure": "(§1) Five EGFP-PKC isoforms (Clontech) were available for this experiment, enabling the screening of the three predominant PKC families (i.e. classical, novel and atypical PKCs). The members of the various PKC families are α, β, and γ (classical), θ (novel) and ζ (atypical).\n(§2) HeLa cells were plated out in a 24-well plate containing coverslips and transfected with PKC isoforms fused to EGFP, using a commercially available effectine-transfection kit (QIAGEN, Pty. Ltd.). Cells were exposed to the transfection reagents for 16-24 hr. Subsequently, transfected cells were treated for one hour with TPA (100 ng/mL), bryostatin-1 (5 pg/mL), PEP003 (2.25 μg/mL; 5 μM) or PEP005 ([…]) 1.5 μM). Following treatment, cells were fixed on coverslips and mounted on glass slides. The slides were subsequently examined visually by fluorescence microscopy, photographed, and over 150 cells were counted/treatment/PKC isoform. Counted cells were classified according to the localisation of the PKC-EGFP fluorescence as either cytoplasmic or plasma membrane using ImagePro™ 4.1 (FIG. 5). […] The number of these cells was also counted. Results are presented as an average and standard deviation of percentages of cells (Table 1)."}, "PKCβ": {"molecular_target": "T2, PKCβ (Homo sapiens, UniProt P05771)", "T2 construct": "host or cells: HeLa cells", "T2 sequence (P05771 whole entry, species assumed)": "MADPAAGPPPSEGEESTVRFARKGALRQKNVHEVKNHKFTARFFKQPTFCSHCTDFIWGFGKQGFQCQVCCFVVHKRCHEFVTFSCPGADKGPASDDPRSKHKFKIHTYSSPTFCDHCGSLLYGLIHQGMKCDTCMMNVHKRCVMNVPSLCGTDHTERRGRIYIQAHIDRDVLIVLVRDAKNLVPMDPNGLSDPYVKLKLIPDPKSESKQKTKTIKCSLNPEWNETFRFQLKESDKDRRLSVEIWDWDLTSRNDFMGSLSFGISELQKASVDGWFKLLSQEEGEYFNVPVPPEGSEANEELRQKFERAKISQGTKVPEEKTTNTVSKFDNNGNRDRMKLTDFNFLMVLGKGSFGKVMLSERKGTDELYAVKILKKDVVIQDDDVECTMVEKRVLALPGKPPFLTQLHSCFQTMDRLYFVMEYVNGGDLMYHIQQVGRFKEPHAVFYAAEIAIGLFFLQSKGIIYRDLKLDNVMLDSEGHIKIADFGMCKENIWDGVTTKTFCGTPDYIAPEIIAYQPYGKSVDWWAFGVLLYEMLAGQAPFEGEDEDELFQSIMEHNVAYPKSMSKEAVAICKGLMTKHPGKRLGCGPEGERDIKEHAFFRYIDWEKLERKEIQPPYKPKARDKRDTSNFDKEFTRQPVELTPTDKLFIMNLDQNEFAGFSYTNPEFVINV", "assay": "EGFP-PKC translocation in HeLa cells (PKCβ)", "conditions": "one hour", "procedure": "as §1, §2"}, "[2]": {"test_system": "peripheral blood mononuclear cells", "assay": "Phagocytosis with fluorescent beads", "conditions": "30 min, whole heparinized blood", "procedure": "Phagocytosis by peripheral blood mononuclear cells (PBMCs) was assayed (Steinkamp et al., 1982) using 1 μm Fluoresbrite™ yellow-green fluorescent latex spheres (Polysciences, Inc., Warrington, Pa.). A sample of whole, heparinized blood was treated with drug and 5×10E7 fluorescent latex beads in 10 μL of PBS added per mL of suspension. Cells were incubated and maintained in suspension for 30 min by means of a shaker platform at 37° C. The stimulated and non-stimulated samples were then lysed to isolate PBMCs. The PBMCs were run on the flow cytometer measuring FITC (excitation at 488 nm, emission at 525±20 nm), gated for fluorescence (phagocytosed spheres) and light scatter (cell size)."}}, "data": [{"smiles": "CCCCCCCCCCCCCC(=O)O[C@@H]1[C@@H](C)[C@@]2(O)[C@@H](C=C(CO)C[C@]3(O)C(=O)C(C)=C[C@@H]23)C2C(C)(C)[C@@]21OC(C)=O", "note": "(single isomer, unassigned) [TPA]", "values": [{"measurement": "induction of VCA in Mutul cells", "setting": "[1]", "value": "did not"}, {"measurement": "translocation of PKCζ", "setting": "PKCζ", "value": "fail to induce translocation"}, {"measurement": "number of PKCβ transfected cells with Golgi-like fluorescence", "setting": "PKCβ", "value": "increase in Golgi-like fluorescence"}, {"measurement": "translocation of PKCβ from cytoplasm to plasma membrane", "setting": "PKCβ; TPA 100 ng/mL, bryostatin-1 5 pg/mL, PEP003 2.25 μg/mL (5 μM), PEP005 670 μg/mL (1.5 μM)", "value": "translocated from the cytoplasm to the plasma membrane"}, {"measurement": "phagocytosis of fluorescent latex spheres in PBMCs", "setting": "[2]", "value": "stimulate phagocytosis"}]}]}
